The test system of one assay is Aspergillus species. In words: Minimum inhibitory concentration (MIC) assay, filamentous fungi. Conditions: antifungal activity, lowest concentration at which 75% inhibition of growth is observed after 48 h. It counts as cell-based. As for the experimental part:
(§1) The assays described below were used to measure the minimum inhibitory concentration (MIC) of a compound necessary to inhibit visible growth of the organism tested. These assays are adapted from NCCLS protocols M7-A4 and M27-A (NCCLS vol 17:9 and vol 17:2) as modified by Sandven, S., Clin. Micro. (1999) 37:12, p. 3856–3859. MIC values for Aspergillus species were determined using NCCLS protocol M38-P.
(§2) All compounds were dissolved in 100% DMSO to a stock concentration of 10 mM and used fresh stock compounds in powder form were kept frozen until needed and used freshly. When used for test purposes, compounds were diluted in the appropriate media depending on the organism being tested.
(§3) For yeast and aspergillus species, seven 1:2 serial dilutions of compound in appropriate media buffered with MOPS at pH 7.0 were prepared such that the final starting test compound concentrations were 44.4 μM for yeast and 50 μM aspergillus species. For bacteria, dilutions were made in growth media used for the particular bacteria being tested.
Inoculums are made by incubating Aspergillus species for 7 days at 35° C. on potato dextrose agar slants. Slants are then covered with 1.0 mL of 0.85% saline, one drop of Tween 20 is added and colonies are teased with a sterile transfer loop to create a suspension which is allowed to sit for 5 min so heavier particles can drop out. The upper suspension is separated and adjusted to an optical density of 0.09 to 0.11. The resulting suspension is diluted 1:50, which yields 2× the final inoculum needed. Micro dilution trays are prepared as with yeast and incubated for 48 h at 35° C. For our purposes the MIC is defined as the lowest compound concentration at which 75% inhibition of growth is observed after 48 h.

The subject of a further assay is bacteria. Nature of the assay: Minimum inhibitory concentration (MIC) assay, bacteria. It counts as cell-based. As for the experimental part: as §1, §2, §3
Five well-separated colonies from a 24 h Sabouraud Dextrose plate incubated at 35° C. were picked and resuspended into 2 mL of normal saline. The O.D.530 was read and the culture was adjusted to 0.5 McFarland units with normal saline. A 1:2000 dilution was made with RPMI 1640 media buffered with MOPS at pH 7.0 and 100 μL of this inoculum preparation was added to an equal volume of test compound-containing media. 25 μL of the redox indicator Alamar Blue (Biosource International) was added to each well and the plates were incubated for 48 h at 35° C. Wells having yeast growth changed color from blue to pink.
Inoculums are made in the same manner as yeast except all dilutions are made in normal saline, with a final dilution of 1:200 and an inoculum of 10 μL.

Structures can show the parent of a compound that is named as a salt.

Regarding `N=C(N)NCCCNC(=O)c1ccc2[nH]c(C(=O)Nc3ccc4[nH]c(C(=O)NCCCNC(=N)N)cc4c3)cc2c1` [Compound 75, 1H-Indole-2,5-dicarboxylic acid 5-[(3-guanidino-propyl)-amide] 2-{[2-(3-guanidino-propylcarbamoyl)-1H-indol-5-yl-]-amide}], the MIC – broadly, the smallest concentration in the dilution series that meets the test's criterion for growth inhibition – in the assay on Aspergillus species was ≤ 50 µM; in the assay with bacteria it was ≤ 45.5 µM.

Turning to `N=C(N)NCCNC(=O)c1ccc2[nH]c(C(=O)Nc3ccc4cc(C(=O)NCCNC(=N)N)[nH]c4c3)cc2c1` [Compound 47, 1H-Indole-2,5-dicarboxylic acid 5-[(2-guanidino-ethyl)-amide] 2-{[2-(2-guanidino-ethylcarbamoyl)-1H-indol-6-yl]-amide}], the minimum inhibitory concentration (MIC) in the assay on Aspergillus species was ≤ 50 µM; against bacteria, ≤ 45.5 µM.

Consider `O=C(NCCNC1=NCCN1)c1ccc2[nH]c(C(=O)Nc3ccc4cc(C(=O)NCCNC5=NCCN5)[nH]c4c3)cc2c1` [Compound 50, 1H-Indole-2,5-dicarboxylic acid 5-{[2-(4,5-dihydro-1H-imidazol-2-ylamino)-ethyl]amide} 2-({2-[2-(4,5-dihydro-1H-imidazol-2-ylamino)-ethylcarbamoyl]-1H-indol-6-yl}-amide)], for which the MIC was ≤ 50 µM with Aspergillus species and ≤ 45.5 µM against bacteria.

For `CNC(=N)NCCCNC(=O)c1cc2ccc(NC(=O)c3cc4cc(C(=O)NCCNC(=N)NC)ccc4[nH]3)cc2[nH]1` [Compound 63, 1H-Indole-2,5-dicarboxylic acid 5-{[2-(N′-methyl-guanidino)-ethyl]-amide} 2-({2-[3-(N′-methyl-guanidino)-propylcarbamoyl]-1H-indol-6-yl}-amide)], the MIC against Aspergillus species was ≤ 50 µM; against bacteria it was ≤ 45.5 µM.

Regarding `N=C(N)NCCC[C@H](N)C(=O)NCCCNC(=O)c1cc2ccc(NC(=O)c3cc4cc(C(=O)NCCNC(=O)[C@@H](N)CCCNC(=N)N)ccc4[nH]3)cc2[nH]1` [Compound 66, 1H-Indole-2,5-dicarboxylic acid 5-{[2-(2-amino-5-guanidino-pentanoylamino)-ethyl]-amide} 2-({2-[3-(2-amino-5-guanidino-pentanoylamino)-propylcarbamoyl]-1H-indol-6-yl}-amide)], in the assay on bacteria, the minimum inhibitory concentration (MIC) was ≤ 45.5 µM.

Regarding `CC(C)(C)OC(=O)NCCNC(=O)c1cc2cc(NC(=O)c3cc4cc(N)ccc4[nH]3)ccc2[nH]1` [Compound 107, [2-({5-[(5-Amino-1H-indole-2-carbonyl)-amino]-1H-indole-2-carbonyl}-amino)-ethyl]-carbamic acid tert-butyl ester], in the assay with bacteria, the MIC was ≤ 45.5 µM.

Regarding `CC(C)Cn1cc(NC(=O)c2ccc3[nH]c(C(=O)NCCNC(=N)N)cc3c2)cc1C(=O)NCCNC(=N)N` [Compound 29, 1H-indole-2,5-dicarboxylic acid 2-[(2-guanidino-ethyl)-amide] 5-{[5-(2-guanidino-ethylcarbamoyl)-1-isobutyl-1H-pyrrol-3-yl]-amide}], the MIC with bacteria is ≤ 45.5 µM.

As for `N=C(N)NCCNC(=O)c1ccc(C(=O)Nc2ccc3[nH]c(C(=O)NCCNC(=N)N)cc3c2)cc1` [Compound 70, N-(2-Guanidino-ethyl)-N′-[2-(2-guanidino-ethylcarbamoyl)-1H-indol-5-yl]-terephthalamide], the minimal inhibitory concentration (MIC) with Aspergillus species was ≤ 50 µM.

As for `C[n+]1ccccc1NCCNC(=O)c1ccc2[nH]c(C(=O)Nc3ccc4cc(C(=O)NCCNc5cccc[n+]5C)[nH]c4c3)cc2c1` [Compound 170, 1H-Indole-2,5-dicarboxylic acid 5-[(2-(1-methylpyridiniu-2-yl)amino-ethyl)-amide] 2-{[2-(2-(1-methylpyridiniu-2-yl)amino-ethylcarbamoyl)-1H-indol-6-yl]-amide}], the MIC in the assay with Aspergillus species is ≤ 50 µM.

`C/N=C(/NCCNC(=O)c1ccc2[nH]c(C(=O)Nc3ccc4[nH]c(C(=O)NCCN/C(=N/C)SC)cc4c3)cc2c1)SC` [Compound 90, 1H-Indole-2,5-dicarboxylic acid 5-{[2-(2,3-dimethylisothioureido)ethyl]amide} 2-({2-[2-(2,3-dimethylisothioureido)ethylcarbamoyl]-1H-indol-5-yl}amide)dihydrochloride]: the MIC against bacteria is ≤ 45.5 µM.

For the origin of these results see patent US7141680B2, “Aromatic compounds possessing antifungal or antibacterial activity” (Genelabs Technologies, Inc., priority 2002, dated 2006).
